Measured values taken from article PMC10723784, “Investigation of the cytotoxicity induced by cannabinoids on human ovarian carcinoma cells” (Pharmacology Research & Perspectives, 2023).
“And” between values parts separate entries of the source, which are not always exact repeats. Equal entries are not always repeated. Where two headings read alike, the source gives them in different places.

Experiments:
[1] = system: A2780 cells; assay: MTT cytotoxicity assay, A2780 cells; conditions: for Combination index (CI), carboplatin + CBD: A2780, 100 nM CBD
Method: (§1) In separate experiments, cells were seeded in 96‐well plates and after 24 h elapsed they were exposed to different concentrations of drugs or vehicle. Cells were then left in the incubator for a further 24 or 48 h. Then the media was replaced with fresh media containing no drug and the cells were left in the incubator. MTT assay was performed after 96 h elapsed from the time when cells were exposed to drugs or vehicle.
(§2) The cells were then left in the incubator and MTT assay was performed 96 h following the initial exposure to the drugs.
(§3) The selective index (SI) is the ratio of mean IC50 values for non‐cancer cells to cancer cells. […] While the isobologram can be considered predominantly as a graphical depiction of drug interactions, the combination index (CI) is a quantitative representation. It relates the actual drug concentration in the combination to the concentration of the single drug that achieves the same effect. […] Here, CI analysis was used to investigate combinations at 50% cytotoxicity. To this end the IC50 of the viability dose–response curves were determined by non‐linear regression curve fit analysis (GraphPad Prism, v5.00).
(§4) CIA+B is the combination index of A and B; C A the concentration of A applied in combination; C B the concentration of B applied in combination; IC50 A the IC50 of drug A when it was applied individually to the cells; IC50 B = IC50 of drug B when it was applied individually to the cells.

[2] = system: A2780/CP70 cells; assay: MTT cytotoxicity assay, A2780/CP70 cells; conditions: for Combination index (CI), carboplatin + CBD: A2780/CP70, 100 nM CBD; for Combination index (CI), carboplatin + CBG: A2780/CP70, 100 nM CBG
Method: as §1, §2, §3, §4

Structure (SMILES): Cc1c(C)c2c(c(C)c1O)CC[C@@](C)(CCC[C@H](C)CCC[C@H](C)CCCC(C)C)O2 [α‐tocopherol]
- Effect on viability of the cells when used alone ([1]; alone up to 100 μM, preliminary experiments, cell line not named (A2780 and A2780/CP70 tested)): did not compromise the viability of the cells

Structure (SMILES): N.N.O=C([O-])C1(C(=O)[O-])CCC1.[Pt+2] [carboplatin]
- Combination index (CI), carboplatin + CBD ([2]; 24 h): 0.85
- Combination index (CI), carboplatin + CBD ([2]; 48 h): 0.78
- Combination index (CI), carboplatin + CBD ([2]; 72 h): 0.8
- Combination index (CI), carboplatin + CBD ([2]; 96 h): 0.57
- Combination index (CI), carboplatin + CBG ([2]; 48 h): 0.78
- Combination index (CI), carboplatin + CBG ([2]; 72 h): 0.71
- Combination index (CI), carboplatin + CBG ([2]; 96 h): 0.65
- IC50 ([2]; read-out: IC50 cytotoxicity, recovery, A2780/CP70, 24 h exposure then drug washed out, MTT at 96 h): 66.5 ± 3.4 µM
- IC50 ([2]; read-out: IC50 cytotoxicity, recovery, A2780/CP70, 48 h exposure then drug washed out, MTT at 96 h): 48.7 ± 0.4 µM
- IC50 ([2]; read-out: IC50 cytotoxicity, recovery, A2780/CP70, 72 h exposure then drug washed out, MTT at 96 h): 45.5 ± 2.6 µM
- IC50 ([2]; read-out: IC50 cytotoxicity, A2780/CP70, 24 h contact time, MTT): > 100 µM
- IC50 ([2]; read-out: IC50 cytotoxicity, A2780/CP70, 48 h contact time, MTT): > 100 µM
- IC50 ([2]; read-out: IC50 cytotoxicity, A2780/CP70, 72 h contact time, MTT): 48 ± 1.9 µM
- IC50 ([2]; read-out: IC50 cytotoxicity, A2780/CP70, 96 h contact time, MTT): 44.9 ± 3.5 µM
- Combination index (CI), carboplatin + CBD ([1]; 24 h, at 50% cytotoxicity): 0.36
- Combination index (CI), carboplatin + CBD ([1]; 48 h, at 50% cytotoxicity): 0.17
- Combination index (CI), carboplatin + CBD ([1]; 72 h, at 50% cytotoxicity): 0.15
- Combination index (CI), carboplatin + CBD ([1]; 96 h, at 50% cytotoxicity): 0.096
- Combination index (CI), carboplatin + CBG ([1]; A2780, 100 nM CBG, 96 h, at 50% cytotoxicity): 0.55
- IC50 ([1]; read-out: IC50 cytotoxicity, recovery, A2780, 24 h exposure then drug washed out, MTT at 96 h): 7.9 ± 0.5 µM
- IC50 ([1]; read-out: IC50 cytotoxicity, recovery, A2780, 48 h exposure then drug washed out, MTT at 96 h): 4.7 ± 0.2 µM
- IC50 ([1]; read-out: IC50 cytotoxicity, recovery, A2780, 48 h exposure then drug washed out, MTT at 96 h, listed as Carboplatin): 4.8 ± 0.2 µM
- IC50 ([1]; read-out: IC50 cytotoxicity, recovery, A2780, 72 h exposure then drug washed out, MTT at 96 h): 2.6 ± 0.5 µM
- IC50 ([1]; read-out: IC50 cytotoxicity, A2780, 24 h contact time, MTT): > 100 µM
- IC50 ([1]; read-out: IC50 cytotoxicity, A2780, 48 h contact time, MTT): 17.3 ± 0.6 µM
- IC50 ([1]; read-out: IC50 cytotoxicity, A2780, 72 h contact time, MTT): 4.3 ± 0.7 µM
- IC50 ([1]; read-out: IC50 cytotoxicity, A2780, 96 h contact time, MTT): 2.57 µM and 2.5 µM and 2.6 µM
- IC50 ([1]; read-out: IC50 cytotoxicity, A2780, 96 h contact time, MTT, listed as Carboplatin): 2.6 ± 0.3 µM
